Type in all cases: cell-based, human
Assay [1] has as its system MDA-MB-231 breast cancer cells. The assay can be described thus: MTT proliferation assay, MDA-MB-231. The settings on record: MDA-MB-231 cells, 24 hours. The method, then: (§1) 1-3. Viability and proliferation. Human breast cancer cell lines were seeded into 96-well plates (5000 cells/well) and treated for 24 hours with various concentrations of SMR peptides including PEG-SMRwt-Clu, PEG-SMRwt and PEG-SMRmut to determine IC50 (inhibition concentration). Cell proliferation was determined using the MTT assay (Molecular Devices, Sunnyvale, Calif.). Control experiments were performed with MTT treated cells alone and untreated cells, and on this basis, the incubation times of 24 hr and 48 hr were used for an MTT assay of peptide-treated cells (Stockerta JC. et al., 2012 and Riss TL. et al., 2015).
(§2) 7-4. Cell proliferation and cytotoxicity assay. Human breast cancer cell lines MCF-7, MDAMB-231, and leukemia K562 cells, and non-tumorigenic MCF-10A cells are seeded into 96-well plates (5000 cells/well) and treated for 24 hours with 0-1120 nM SMRwt-CPP or SMRmut-CPP (FIG. 10). Cell proliferation was determined using the MTT [3-(4,5-dimethylthiazol-2-yl)-2,5-diphenyltetrazolium bromide] dye assay by SpectraMax M5 Fluorescence Plate Reader (Molecular Devices. Sunnyvale, Calif.). Cell viability was estimated by the conversion of yellow MTT by mitochondrial dehydrogenases of living cells to purple formazon (MTT assay). Control experiments were performed with cells treated or untreated with MTT, and on this basis, an incubation time of 24 hours was used for MTT assays of peptide-treated cells (Huang, M. B., et al., Oncotarget, 2017. 8(7): pp. 11302-11315.). Statistical significance of results was determined from three independent experiments including triplet or quadruplet sets in each experiment.
A general note: Tetrazolium assays rely on reduction of a dye to a coloured formazan, in cell work by metabolically active cells.

The subject of assay [2] is MCF-7 breast cancer cells. The assay can be described thus: Propidium iodide cell cycle analysis (Cellometer), MCF-7. The settings on record: MCF-7 cells, 48 hours, 1.12 μM/mL peptide. The method, then: 1-4. Cell cycle analysis. MCF-7 and MDA-MB-231 breast cancer cells were cultured into 6-well plates at 4×10^5 cells per well and treated with either paclitaxel and cisplatin or combined with PEG-SMRwt-CLU peptide for 24 and 48 hours. Cell cycle analysis was performed using a propidium iodide cell cycle assay and measured using a Cellometer (Nexcelom, MA). […] Breast cancer cells were seeded into 96-well plates at 5×10^3 cells/ml, and treated with either 1.6 μM//mL of paclitaxel, or 3 mg/mL cisplatin, 1.12 μM/mL PEG-SMRwt-CLU peptide, SMR peptide combined with paclitaxel or with cisplatin (MCF-7 cells). Alternatively 1.6 μM/mL paclitaxel or 2 mg/mL cisplatin or 0.28 μM/mL of PEG-SMR-CLU peptide, or the peptide combined with each of these drugs was used for MDA-MB-231 cells. The concentrations for cisplatin and paclitaxel were experimentally determined IC50 dosages for the different cell types (data not shown). At the end of the 24 hr or 48 hr incubations, the cells were assessed by the Cellometry imaging cytometry assay.
All above steps were done on MCF-7 and MDA-MB-231 cells separately. […]

The subject of assay [3] is MCF-7 breast cancer cells. Put plainly: MTT proliferation assay, MCF-7. As to conditions: MCF-7 cells, 24 hours. As to the method:
as §1, §2

Assay [4] relates to MCF-7 breast cancer cells. The assay can be described thus: Exosome nanoparticle tracking analysis (NanoSight NTA), MCF-7. The settings on record: MCF-7 cells treated 48 hr; untreated control 5.16×10^9 particles/ml. As to the method: 1-6. Exosome isolation and purification. Exosomes were isolated from breast cancer cells by differential centrifugation as previously described (Ali SA. et al., 2010). Untreated tumor cells were used as a control. Briefly, the above treated and untreated cell culture supernatants were centrifuged at 400×g for 10 minutes. The supernatants were transferred to a clear tube and centrifuged at 10,000×g for 30 minutes. The supernatants from the second spin were ultracentrifuged at 200,000×g for 2 hours to pellet exosomes. Finally, the exosome pellets were re-suspended with PBS and stored at 4° C. until used for analysis.
1-8. Exosome nanoparticle tracking analysis (NTA). Analysis of absolute size distribution of exosomes was performed using NanoSight LM10 with NTA2.3 (NanoSight Ltd., Minton Park, UK). Particles were automatically tracked and sized based on Brownian motion and the diffusion coefficient. After isolation, the untreated and treated breast cancer exosomes were re-suspended in 0.5 mL of PBS. Control medium and filtered PBS were used as controls in this technique. The NTA measurement conditions were: temperature=21.0+/−0.5° C.; viscosity=0.99+/−0.01 cP; frames per second=25; measurement time=30 s. The detection threshold was similar in all samples. Two recordings were performed for each sample.
7-11. Exosome nanoparticle tracking analysis (NTA). […]

Assay [5] has as its system non-tumorigenic MCF-10A cells. The assay can be described thus: MTT proliferation assay, MCF-10A. As to conditions: 24 hours, up to 1120 nM/mL. As to the method: as §1
as §2, with “Control experiments were performed with cells treated or untreated with MTT, and on this basis, an incubation time of 24 hours was used for MTT assays of peptide-treated cells (Huang, M. B., et al., Oncotarget, 2017. 8(7): pp. 11302-11315.).” left out

The mark [6] stands for this setting: MTT, read-out: 50% inhibition of cell growth.
The mark [7] stands for this setting: read-out: SMR at IC50 concentration.

Entries after “also recorded” stand apart in the source; their conditions may differ. Where two headings read alike, the source gives them in different places.

For the sequence “NXNVGFPVAAVGFPVHPLSKHPYWSQP (SEQ ID NO: 37) [PEG-SMRwt-Clu]”, the IC50 in assay [1] (setting [6]) worked out at 280 nM; in assay [1] (setting [7]), 280 nM; in assay [3] (setting [6]), 1120 nM; in assay [3] (setting [7]) it was 1120 nM. Moreover, the cell cycle effect entry in assay [2] was “induced cell cycle arrest”. Further, in assay [4], the “number of exosome particles (NTA)” value is reported as 3.28×10^8 particles/ml.

With VGFPVAAVGFPVGRKKRRQRRRPPQ [SMRwt-CPP], the “effect on proliferation (in words)” value in assay [5] is recorded as “not affected; also recorded: no effect”.

Values taken from US11472846B2, “Compositions and methods for treating diseases by inhibiting exosome release” (priority 2016, dated 2022).
